Assay results reported in PMC10414684, “Novel integrated computational AMP discovery approaches highlight diversity in the helminth AMP repertoire” (PLOS Pathogens, 2023).
Converted amounts (≈) assume the structure as drawn. Structures can show the parent of a compound that is named as a salt. No end group written: not given here.

Legend:
E. coli K12 = assay: Minimum inhibitory concentration, microbroth dilution; type: cell-based, Escherichia coli; conditions: 5x10^5 CFU/ml, 37°C, 18–24 h, visible growth; for MIC E. coli K12 (-): cation-adjusted MHB, peptides 512–0.25μg/ml, >70% purity (Cecropin P1 >95%), Ciprofloxacin 32–0.02μg/ml
Procedure: (§1) Prioritised helminth AMP-LPs were synthesised at >70% purity (Genosphere Biotechnologies). […] Peptides and control antibiotics [Ciprofloxacin (for gram-negative species; Sigma-Aldrich) and Vancomycin hydrochloride (for gram-positive species; Sigma-Aldrich)] were dissolved in sterile ultrapure water at a concentration of 5.12mg/ml. Minimum inhibitory concentrations (MICs) were determined for gram-positive and gram-negative bacterial isolates (see Table 3 for species) using microbroth dilution assays as described previously. Briefly, a single colony from each bacterial species was inoculated in cation-adjusted Mueller Hinton Broth (MHB) and grown for 18–24 hours at 37°C with shaking (225rpm) before being adjusted to a final bacterial density of 5x10^5 colony forming units (CFU) per ml. Peptides and Vancomycin hydrochloride were diluted using sterile MHB in sterile U-bottom 96 well polypropylene microplates (Greiner Bio One, UK) to give a concentration gradient ranging from 512–0.25μg/ml. Ciprofloxacin was further diluted in sterile MHB to give a concentration gradient ranging from 32–0.02μg/ml. Microplates were incubated at 37°C for 18–24 hours. Plates were assessed for visible growth and the MIC was defined as the lowest concentration of peptide or antibiotic that inhibited visible growth of a bacterial culture after an 18–24-hour incubation. MIC data were validated by positive and negative control antibiotic MIC data for each bacterial isolate.

A. baumannii DSM 30007 = assay: as above; type: cell-based, Acinetobacter baumannii; conditions: 5x10^5 CFU/ml, 37°C, 18–24 h, visible growth; for MIC A. baumannii DSM 30007 (-): cation-adjusted MHB, peptides 512–0.25μg/ml, >70% purity (Cecropin P1 >95%), Ciprofloxacin 32–0.02μg/ml
Procedure: as §1

P. aeruginosa PA01 = assay: as above; type: cell-based, Pseudomonas aeruginosa; conditions: 5x10^5 CFU/ml, 37°C, 18–24 h, visible growth; for MIC P. aeruginosa PA01 (-): cation-adjusted MHB, peptides 512–0.25μg/ml, >70% purity (Cecropin P1 >95%), Ciprofloxacin 32–0.02μg/ml
Procedure: as §1

S. aureus EMRSA-15 = assay: microbe, parasite or virus in culture; type: cell-based, Staphylococcus aureus
Procedure: as §1

S. aureus RN4220 = assay: microbe, parasite or virus in culture; type: cell-based, Staphylococcus aureus; conditions: for MIC S. aureus RN4220 (+): Methicillin-Sensitive, microbroth dilution, cation-adjusted MHB, 5x10^5 CFU/ml, 37°C, 18–24 h, visible growth, peptides and Vancomycin hydrochloride 512–0.25μg/ml, peptides >70% purity (Cecropin P1 >95%)
Procedure: as §1

E. faecalis JH2-2 = assay: microbe, parasite or virus in culture; type: cell-based, Enterococcus faecalis
Procedure: as §1

[1] = Methicillin-resistant, microbroth dilution, cation-adjusted MHB, 5x10^5 CFU/ml, 37°C, 18–24 h, visible growth, peptides and Vancomycin hydrochloride 512–0.25μg/ml, peptides >70% purity (Cecropin P1 >95%)
[2] = microbroth dilution, cation-adjusted MHB, 5x10^5 CFU/ml, 37°C, 18–24 h, visible growth, peptides and Vancomycin hydrochloride 512–0.25μg/ml, peptides >70% purity (Cecropin P1 >95%)

Compound	MIC (E. coli K12; Escherichia coli, K12, cation-adjusted MHB, read-out: MIC E. coli K12 (-), μM in brackets) [µM]	MIC E. coli K12 (-) (E. coli K12)	MIC (A. baumannii DSM 30007; Acinetobacter baumannii, DSM30007, cation-adjusted MHB, read-out: MIC A. baumannii DSM 30007 (-), μM in brackets) [µM]	MIC A. baumannii DSM 30007 (-) (A. baumannii DSM 30007)	MIC (P. aeruginosa PA01; Pseudomonas aeruginosa, PA01, cation-adjusted MHB, read-out: MIC P. aeruginosa PA01 (-), μM in brackets) [µM]	MIC P. aeruginosa PA01 (-) (P. aeruginosa PA01)	MIC S. aureus EMRSA-15 (+) (S. aureus EMRSA-15; [1])	MIC (S. aureus EMRSA-15; Staphylococcus aureus, EMRSA15, read-out: MIC S. aureus EMRSA-15 (+), μM in brackets) [µM]	MIC S. aureus RN4220 (+) (S. aureus RN4220)	MIC (S. aureus RN4220; Staphylococcus aureus, RN4220, read-out: MIC S. aureus RN4220 (+), μM in brackets) [µM]	MIC (E. faecalis JH2-2; Enterococcus faecalis, JH22, read-out: MIC E. faecalis JH2-2 (+), μM in brackets) [µM]	MIC E. faecalis JH2-2 (+) (E. faecalis JH2-2; [2])	MIC S. aureus EMRSA-15 (+) (S. aureus EMRSA-15; EMRSA-15) [µg/mL]	MIC E. faecalis JH2-2 (+) (E. faecalis JH2-2; JH2-2) [µg/mL]
O=C(O)c1cn(C2CC2)c2cc(N3CCNCC3)c(F)cc2c1=O [Ciprofloxacin, reference compound]	0.2 (≈ 0.0663 µg/mL)	0.0625 µg/mL (≈ 0.189 µM)	3 (≈ 0.994 µg/mL)	1 µg/mL (≈ 3.02 µM)	2 (≈ 0.663 µg/mL)	0.5 µg/mL (≈ 1.51 µM)	–	–	–	–	–	–	–	–
CN[C@H](CC(C)C)C(=O)N[C@H]1C(=O)N[C@@H](CC(N)=O)C(=O)N[C@H]2C(=O)N[C@H]3C(=O)N[C@H](C(=O)N[C@H](C(=O)O)c4cc(O)cc(O)c4-c4cc3ccc4O)[C@H](O)c3ccc(c(Cl)c3)Oc3cc2cc(c3O[C@@H]2O[C@H](CO)[C@@H](O)[C@H](O)[C@H]2O[C@H]2C[C@](C)(N)[C@H](O)[C@H](C)O2)Oc2ccc(cc2Cl)[C@H]1O [Vancomycin hydrochloride, reference compound]	–	–	–	–	–	–	2 µg/mL	1	1 µg/mL	0.7	1	2 µg/mL	–	–
AVAHVALKLATSPVGKVALNAMVPGAGTVLGVAAKHHGMVKKLVRV [nAMP-LP-224, nematode AMP-like peptide selected for synthesis and MIC screening]	–	/ (/ indicates that there was no activity at the highest concentration of peptide used (512μg/ml))	–	/ (/ indicates that there was no activity at the highest concentration of peptide used (512μg/ml))	–	/ (/ indicates that there was no activity at the highest concentration of peptide used (512μg/ml))	/ (/ indicates that there was no activity at the highest concentration of peptide used (512μg/ml))	–	/ (/ indicates that there was no activity at the highest concentration of peptide used (512μg/ml))	–	–	/ (/ indicates that there was no activity at the highest concentration of peptide used (512μg/ml))	–	–
DGCPKRVAIAVLKAPYKIFKKEANKGLFKLADKIHGVRY [fAMP-LP-123, flatworm AMP-like peptide selected for synthesis and MIC screening]	–	/ (/ indicates that there was no activity at the highest concentration of peptide used (512μg/ml))	–	/ (/ indicates that there was no activity at the highest concentration of peptide used (512μg/ml))	–	/ (/ indicates that there was no activity at the highest concentration of peptide used (512μg/ml))	/ (/ indicates that there was no activity at the highest concentration of peptide used (512μg/ml))	–	–	–	–	/ (/ indicates that there was no activity at the highest concentration of peptide used (512μg/ml))	–	–
EYLRKVKDAGAGKAKGGGAPGAESKSGKKSGSAETAASGGAKKGKKK [nAMP-LP-98, nematode AMP-like peptide selected for synthesis and MIC screening]	–	/ (/ indicates that there was no activity at the highest concentration of peptide used (512μg/ml))	–	/ (/ indicates that there was no activity at the highest concentration of peptide used (512μg/ml))	–	/ (/ indicates that there was no activity at the highest concentration of peptide used (512μg/ml))	/ (/ indicates that there was no activity at the highest concentration of peptide used (512μg/ml))	–	/ (/ indicates that there was no activity at the highest concentration of peptide used (512μg/ml))	–	–	/ (/ indicates that there was no activity at the highest concentration of peptide used (512μg/ml))	–	–
FDKNLLKKGKKSSAYEKHPISRRVLRFE [nAMP-LP-764, nematode AMP-like peptide selected for synthesis and MIC screening]	–	/ (/ indicates that there was no activity at the highest concentration of peptide used (512μg/ml))	–	/ (/ indicates that there was no activity at the highest concentration of peptide used (512μg/ml))	–	/ (/ indicates that there was no activity at the highest concentration of peptide used (512μg/ml))	/ (/ indicates that there was no activity at the highest concentration of peptide used (512μg/ml))	–	/ (/ indicates that there was no activity at the highest concentration of peptide used (512μg/ml))	–	–	/ (/ indicates that there was no activity at the highest concentration of peptide used (512μg/ml))	–	–
FGYWSGGGHGGGHGIHGGGGGHHGWH [nAMP-LP-235, nematode AMP-like peptide selected for synthesis and MIC screening]	–	/ (/ indicates that there was no activity at the highest concentration of peptide used (512μg/ml))	–	/ (/ indicates that there was no activity at the highest concentration of peptide used (512μg/ml))	–	/ (/ indicates that there was no activity at the highest concentration of peptide used (512μg/ml))	/ (/ indicates that there was no activity at the highest concentration of peptide used (512μg/ml))	–	/ (/ indicates that there was no activity at the highest concentration of peptide used (512μg/ml))	–	–	/ (/ indicates that there was no activity at the highest concentration of peptide used (512μg/ml))	–	–
QWWGGRGGGRWRGGWRGGWRGRGRGWW [nAMP-LP-104]	–	–	–	–	–	–	–	–	256 µg/mL	–	–	–	256	256
